{
  "source": "patent US20260174646A1",
  "about": "“Topical detergent composition comprising ascorbyl glucoside and ascorbyl palmitat” (Mitochon S.r.l., priority 2022, published 2026)",
  "origin": "cited, not measured here",
  "data": [
    {"compound": "CCCCCCCCCCCCCCCC(=O)OC[C@H](O)[C@H]1OC(=O)C(O)=C1O", "note": "[ascorbyl palmitate, Ascorbyl palmitate]", "values": [
      {"measurement": "ability to release ascorbic acid into the epidermis", "setting": "refs. [8,9]", "result": "reduced ability to release ascorbic acid into the epidermis"},
      {"measurement": "tissue levels of ascorbic acid when applied to the skin", "setting": "topical application, ref. [7]", "result": "incapable of increasing tissue levels of ascorbic acid"}
    ]}
  ]
}
